Measurements from patent US10513567B2, “Polycations and methods of making and using thereof” (Georgia Tech Research Corporation, priority 2016, dated 2019).

Experiment: Fragmentation (hydrolysis) of WCL pyridine adducts and oligocations in deuterated aqueous buffer followed by 1H NMR
Assay type: physicochemical
Description: The fragmentation of cationic adducts was followed by ^1H NMR in deuterated buffer, with the relative concentration of each species established by integration of unique resonances. Each adduct in Table 3 and Table 4 was thus examined in three independent runs.
Each adduct dinitrate was isolated, characterized, and heated at 50° C. in deuterated buffer; following the disappearance of the adduct by NMR, first-order rate constants of fragmentation were obtained.
Using the conditions of Table 4, three additional oligocations were prepared from the bis(pyridine) linkers as shown in Table 5. […] The stabilities of these compounds toward fragmentation under aqueous conditions were assessed by NMR in deuterated buffer, following the disappearance of the thiabicyclononane C—H resonance adjacent to the pyridine group (position g in FIG. 14) and the appearance of the corresponding resonance (4.3 ppm) for the diol product 4 (FIG. 6).

Row | Structure (SMILES) | kfrag, pseudo first order fragmentation (50° C., deuterated buffer) | kfrag, pseudo first order fragmentation (37° C.) | krel (37° C., relative to 5i) | krel (50° C., relative to 5e)
1 | COC(=O)c1ccc[n+](C2CCC3SC2CCC3[n+]2cccc(C(=O)OC)c2)c1.O=[N+]([O-])[O-].O=[N+]([O-])[O-] (centres unmarked) [Compound 5b, 2,6-di-3-methoxycarbonylpyridinium-9-thiabicyclo[3.3.1]nonane dinitrate] | (3.03 ± 0.38) × 10^−2 h^−1 | – | – | –
2 | COC(=O)c1cc[n+](C2CCC3SC2CCC3[n+]2ccc(C(=O)OC)cc2)cc1.O=[N+]([O-])[O-].O=[N+]([O-])[O-] (centres unmarked) [Compound 5c, 2,6-di-4-methoxycarbonylpyridinium-9-thiabicyclo[3.3.1]nonane dinitrate] | (3.66 ± 0.33) × 10^−2 h^−1 | (0.16 ± 0.01) × 10^−2 h^−1 | 0.3 | –
3 | NC(=O)c1ccc[n+](C2CCC3SC2CCC3[n+]2cccc(C(N)=O)c2)c1.O=[N+]([O-])[O-].O=[N+]([O-])[O-] (centres unmarked) [Compound 5d, 2,6-di-3-carbamylpyridinium-9-thiabicyclo[3.3.1]nonane dinitrate] | (3.18 ± 0.32) × 10^−2 h^−1 | – | – | –
4 | NC(=O)c1cc[n+](C2CCC3SC2CCC3[n+]2ccc(C(N)=O)cc2)cc1.O=[N+]([O-])[O-].O=[N+]([O-])[O-] (centres unmarked) [Compound 5e, 2,6-di-4-carbamylpyridinium-9-thiabicyclo[3.3.1]nonane dinitrate] | (1.62 ± 0.10) × 10^−2 h^−1 | – | – | 1.00
5 | Brc1ccc[n+](C2CCC3SC2CCC3[n+]2cccc(Br)c2)c1.O=[N+]([O-])[O-].O=[N+]([O-])[O-] (centres unmarked) [Compound 5f, 2,6-di-3-bromopyridinium-9-thiabicyclo[3.3.1]nonane dinitrate] | (6.59 ± 0.58) × 10^−2 h^−1 | – | – | –
6 | FC(F)(F)c1ccc[n+](C2CCC3SC2CCC3[n+]2cccc(C(F)(F)F)c2)c1.O=[N+]([O-])[O-].O=[N+]([O-])[O-] (centres unmarked) [Compound 5g, 2,6-di-3-trifluoromethylpyridinium-9-thiabicyclo[3.3.1]nonane dinitrate] | (74.8 ± 5.4) × 10^−2 h^−1 | (5.87 ± 0.71) × 10^−2 h^−1 | 11 | –
7 | N#Cc1ccc[n+](C2CCC3SC2CCC3[n+]2cccc(C#N)c2)c1.O=[N+]([O-])[O-].O=[N+]([O-])[O-] (centres unmarked) [Compound 5h, 2,6-di-3-cyanopyridinium-9-thiabicyclo[3.3.1]nonane dinitrate] | (10.8 ± 0.98) × 10^−2 h^−1 | (1.14 ± 0.16) × 10^−2 h^−1 | 2.1 | –
8 | COc1cc(Br)c[n+](C2CCC3SC2CCC3[n+]2cc(Br)cc(OC)c2)c1.O=[N+]([O-])[O-].O=[N+]([O-])[O-] (centres unmarked) [Compound 5i, 2,6-di-3-bromo-5-methoxylpyridinium-9-thiabicyclo[3.3.1]nonane dinitrate] | (7.51 ± 0.53) × 10^−2 h^−1 | (0.55 ± 0.04) × 10^−2 h^−1 | 1 | –
9 | NC(=O)c1cc(Br)c[n+](C2CCC3SC2CCC3[n+]2cc(Br)cc(C(N)=O)c2)c1.O=S(=O)([O-])C(F)(F)F.O=S(=O)([O-])C(F)(F)F (centres unmarked) [Compound 5j, 2,6-di-3-bromo-5-carbamylpyridinium-9-thiabicyclo[3.3.1]nonane ditriflate] | – | (9.34 ± 0.87) × 10^−2 h^−1 | 17 | –
10 | COC(=O)c1cc(C(=O)OC)c[n+](C2CCC3SC2CCC3[n+]2cc(C(=O)OC)cc(C(=O)OC)c2)c1.O=S(=O)([O-])C(F)(F)F.O=S(=O)([O-])C(F)(F)F (centres unmarked) [Compound 5k, 2,6-di-3,5-dimethoxycarbonylpyridinium-9-thiabicyclo[3.3.1]nonane ditriflate] | – | (11.9 ± 1.13) × 10^−2 h^−1 | 22 | –
11 | COC(=O)c1cc(Br)c[n+](C2CCC3SC2CCC3[n+]2cc(Br)cc(C(=O)OC)c2)c1.O=S(=O)([O-])C(F)(F)F.O=S(=O)([O-])C(F)(F)F (centres unmarked) [Compound 5l, 2,6-di-3-bromo-5-methoxycarbonylpyridinium-9-thiabicyclo[3.3.1]nonane ditriflate] | – | (10.9 ± 1.81) × 10^−2 h^−1 | 20 | –
